“And” between values parts separate entries of the source, which are not always exact repeats. Identical values can stand only once. Inconclusive results and toxic doses are left out.
Tested on: CD2F1 mice, L1210 leukemia ip, survival T/C
Test: NCI In Vivo Anticancer Drug Screen. Data for tumor model L1210 Leukemia (intraperitoneal) in CD2F1 (CDF1) mice
Details: higher = longer survival
Procedure, shortened: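 Vehicle-treated tumor-bearing mice served as controls (C) for compound-treated mice (T). Reported figure is T divided by C.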

## CS(=O)(=O)OCCCNCCCOS(C)(=O)=O
endpoint: mean survival time, dose: 6.3 mg/kg/injection, schedule: Q01DX009 (ip), vehicle: saline
  T/C: 123 % of control
endpoint: mean survival time, dose: 6.3 mg/kg/injection, schedule: Q04DX003 (ip), vehicle: saline
  T/C: 119 % of control and 114 % of control
endpoint: mean survival time, dose: 10.0 mg/kg/injection, schedule: Q03DX003 (ip), vehicle: saline
  T/C: 121 % of control
endpoint: mean survival time, dose: 12.5 mg/kg/injection, schedule: Q01DX001 (ip), vehicle: saline
  T/C: 121 % of control and 120 % of control
endpoint: mean survival time, dose: 12.5 mg/kg/injection, schedule: Q04DX003 (ip), vehicle: saline
  T/C: 119 % of control
endpoint: mean survival time, dose: 20.0 mg/kg/injection, schedule: Q01DX007 (ip), vehicle: saline
  T/C: 162 % of control
endpoint: mean survival time, dose: 20.0 mg/kg/injection, schedule: Q01DX009 (ip), vehicle: saline
  T/C: 164 % of control and 170 % of control
endpoint: mean survival time, dose: 20.0 mg/kg/injection, schedule: Q04DX003 (ip), vehicle: saline
  T/C: 152 % of control
endpoint: mean survival time, dose: 23.0 mg/kg/injection, schedule: Q01DX009 (ip), vehicle: saline
  T/C: 160 % of control
endpoint: mean survival time, dose: 25.0 mg/kg/injection, schedule: Q01DX001 (ip), vehicle: saline
  T/C: 110 % of control
endpoint: mean survival time, dose: 25.0 mg/kg/injection, schedule: Q01DX009 (ip), vehicle: saline
  T/C: 162 % of control [middle of 4 runs]
endpoint: mean survival time, dose: 25.0 mg/kg/injection, schedule: Q04DX003 (ip), vehicle: saline
  T/C: 151 % of control and 155 % of control
endpoint: mean survival time, dose: 39.0 mg/kg/injection, schedule: Q01DX009 (ip), vehicle: saline
  T/C: 171 % of control
endpoint: mean survival time, dose: 39.0 mg/kg/injection, schedule: Q04DX003 (ip), vehicle: saline
  T/C: 152 % of control
endpoint: mean survival time, dose: 40.0 mg/kg/injection, schedule: Q01DX007 (ip), vehicle: saline
  T/C: 167 % of control
endpoint: mean survival time, dose: 40.0 mg/kg/injection, schedule: Q01DX009 (ip), vehicle: saline
  T/C: 171 % of control and 189 % of control and 206 % of control
endpoint: mean survival time, dose: 40.0 mg/kg/injection, schedule: Q04DX003 (ip), vehicle: saline
  T/C: 152 % of control
endpoint: mean survival time, dose: 50.0 mg/kg/injection, schedule: Q01DX001 (ip), vehicle: saline
  T/C: 150 % of control
endpoint: mean survival time, dose: 50.0 mg/kg/injection, schedule: Q01DX009 (ip), vehicle: saline
  T/C: 219 % of control and 181 % of control and 239 % of control
endpoint: mean survival time, dose: 50.0 mg/kg/injection, schedule: Q04DX003 (ip), vehicle: saline
  T/C: 177 % of control [middle of 4 runs]
endpoint: mean survival time, dose: 65.0 mg/kg/injection, schedule: Q01DX001 (oral), vehicle: saline
  T/C: 106 % of control
endpoint: mean survival time, dose: 65.0 mg/kg/injection, schedule: Q01DX009 (ip), vehicle: saline
  T/C: 168 % of control
endpoint: mean survival time, dose: 65.0 mg/kg/injection, schedule: Q01DX009 (oral), vehicle: saline
  T/C: 90 % of control
endpoint: mean survival time, dose: 65.0 mg/kg/injection, schedule: Q04DX003 (ip), vehicle: saline
  T/C: 179 % of control
endpoint: mean survival time, dose: 100.0 mg/kg/injection, schedule: Q01DX001 (ip), vehicle: saline
  T/C: 161 % of control and 172 % of control and 155 % of control
endpoint: mean survival time, dose: 100.0 mg/kg/injection, schedule: Q01DX009 (ip), vehicle: saline
  T/C: 95 % of control and 121 % of control
endpoint: mean survival time, dose: 100.0 mg/kg/injection, schedule: Q04DX003 (ip), vehicle: saline
  T/C: 261 % of control [middle of 5 runs]
endpoint: mean survival time, dose: 108.0 mg/kg/injection, schedule: Q01DX001 (oral), vehicle: saline
  T/C: 121 % of control
endpoint: mean survival time, dose: 108.0 mg/kg/injection, schedule: Q01DX009 (oral), vehicle: saline
  T/C: 86 % of control
endpoint: mean survival time, dose: 108.0 mg/kg/injection, schedule: Q04DX003 (ip), vehicle: saline
  T/C: 205 % of control
endpoint: mean survival time, dose: 108.0 mg/kg/injection, schedule: Q08DX002 (ip), vehicle: saline
  T/C: 150 % of control
endpoint: mean survival time, dose: 180.0 mg/kg/injection, schedule: Q01DX001 (ip), vehicle: saline
  T/C: 150 % of control
endpoint: mean survival time, dose: 180.0 mg/kg/injection, schedule: Q01DX001 (oral), vehicle: saline
  T/C: 119 % of control
endpoint: mean survival time, dose: 200.0 mg/kg/injection, schedule: Q01DX001 (ip), vehicle: saline
  T/C: 277 % of control and 288 % of control and 517 % of control
endpoint: mean survival time, dose: 200.0 mg/kg/injection, schedule: Q04DX003 (ip), vehicle: saline
  T/C: 121 % of control and 123 % of control

## Cc1c2c(cc3c1[nH]c1ccccc13)C(c1ccc(Cl)cc1)=NCC2
endpoint: mean survival time, dose: 100.0 mg/kg/injection, schedule: Q01DX009 (ip), vehicle: saline with Tween-80
  T/C: 101 % of control
endpoint: mean survival time, dose: 100.0 mg/kg/injection, schedule: Q04DX003 (ip), vehicle: saline with Tween-80
  T/C: 101 % of control
endpoint: mean survival time, dose: 200.0 mg/kg/injection, schedule: Q01DX009 (ip), vehicle: saline with Tween-80
  T/C: 98 % of control
endpoint: mean survival time, dose: 200.0 mg/kg/injection, schedule: Q04DX003 (ip), vehicle: saline with Tween-80
  T/C: 89 % of control
endpoint: mean survival time, dose: 400.0 mg/kg/injection, schedule: Q01DX009 (ip), vehicle: saline with Tween-80
  T/C: 106 % of control
endpoint: mean survival time, dose: 400.0 mg/kg/injection, schedule: Q04DX003 (ip), vehicle: saline with Tween-80
  T/C: 88 % of control

## COC(=O)c1ncn(C2OC(COC(=O)c3ccccc3)C(OC(=O)c3ccccc3)C2OC(=O)c2ccccc2)c1C(=O)OC (centres undefined)
endpoint: median survival time, dose: 8.75 mg/kg/injection, schedule: Q01DX005 (ip), vehicle: distilled water + Tween-80
  T/C: 93 % of control
endpoint: median survival time, dose: 12.5 mg/kg/injection, schedule: Q01DX005 (ip), vehicle: distilled water + Tween-80
  T/C: 97 % of control
endpoint: median survival time, dose: 25.0 mg/kg/injection, schedule: Q01DX005 (ip), vehicle: distilled water + Tween-80
  T/C: 90 % of control
endpoint: median survival time, dose: 35.0 mg/kg/injection, schedule: Q01DX005 (ip), vehicle: distilled water + Tween-80
  T/C: 103 % of control
endpoint: median survival time, dose: 50.0 mg/kg/injection, schedule: Q01DX005 (ip), vehicle: distilled water + Tween-80
  T/C: 88 % of control
endpoint: median survival time, dose: 100.0 mg/kg/injection, schedule: Q01DX005 (ip), vehicle: distilled water + Tween-80
  T/C: 92 % of control
endpoint: median survival time, dose: 140.0 mg/kg/injection, schedule: Q01DX005 (ip), vehicle: distilled water + Tween-80
  T/C: 89 % of control
endpoint: median survival time, dose: 200.0 mg/kg/injection, schedule: Q01DX005 (ip), vehicle: distilled water + Tween-80
  T/C: 97 % of control

Source: PubChem BioAssay AID256 (DTP/NCI, 2004)
